Five compounds from US9771353B2, “Kinase inhibitors based upon N-alkyl pyrazoles” (RESPIVERT LIMITED, priority 2013, dated 2017) can be followed below.

In one test the target is p38 MAPKα (Homo sapiens (Human), UniProt Q16539). The experiment in a line: p38 MAPKα enzyme inhibition (FRET, Z-LYTE), Method 2. Format: biochemical.
The target in the next test is c-Src (Homo sapiens (Human), UniProt P12931). The experiment in a line: c-Src enzyme inhibition (FRET, Z-LYTE). The format is biochemical. How it is done: (§1) The enzyme inhibitory activities of compounds disclosed herein are determined by FRET using synthetic peptides labelled with both donor and acceptor fluorophores (Z-LYTE, Invitrogen Ltd., Paisley, UK).
(§2) The relevant enzyme (3000 ng/mL or 2000 ng/mL respectively, 2.5 μL) is incubated with the test compound (either 4 μg/mL, 0.4 μg/mL, 0.04 μg/mL, or 0.004 μg/mL, 2.5 μL each) for 2 hr at RT. The FRET peptides (8 μM, 2.5 μL), and appropriate ATP solutions (2.5 μL, 800 μM for c-Src, and 60 μM ATP for Syk) are then added to the enzymes/compound mixtures and incubated for 1 hr. Development reagent (protease, 5 μL) is added for 1 hr prior to detection in a fluorescence microplate reader (Varioskan® Flash, ThermoFisher Scientific).
(§3) In all cases, the site-specific protease cleaves non-phosphorylated peptide only and eliminates the FRET signal. Phosphorylation levels of each reaction are calculated using the ratio of coumarin emission (donor) over fluorescein emission (acceptor), for which high ratios indicate high phosphorylation and low ratios indicate low phosphorylation levels.

For the next test, the target named is Syk (Homo sapiens (Human), UniProt P43405). Put plainly: Syk enzyme inhibition (FRET, Z-LYTE). The format is biochemical. The procedure: as §1
as §2, with “The inhibitory activities of compounds of the invention against c-Src and Syk enzymes (Invitrogen), are evaluated in a similar fashion to that described hereinabove. The relevant” for “The relevant”
as §3

The next test deals with GSK3α (Homo sapiens (Human), UniProt P49840). Put plainly: GSK 3α enzyme inhibition (FRET, Z-LYTE), Method 2. The format is biochemical. The procedure: as §1
The inhibitory activities of compounds of the invention against the GSK 3α enzyme isoform (Invitrogen), are evaluated by determining the level of activation/phosphorylation of the target peptide. The GSK3-α protein (500 ng/mL, 2.5 μL) is mixed with the test compound (2.5 μL at either 4 μg/mL, 0.4 μg/mL, 0.04 μg/mL, or 0.004 μg/mL) for 2 hr at RT. The FRET peptide (8 μM, 2.5 μL), which is a phosphorylation target for GSK3α, and ATP (40 μM, 2.5 μL) are then added to the enzyme/compound mixture and the resulting mixture incubated for 1 hr. Development reagent (protease, 5 μL) is added for 1 hr prior to detection in a fluorescence microplate reader (Varioskan® Flash, ThermoFisher Scientific).
as §3
This method follows the same steps as Method 1 above, but utilises a shorter period of mixing of the test compound (105 minutes instead of 2 hours) with the GSK3-α protein.

Test [1] deals with PBMCs. The experiment in a line: LPS-induced TNFα/IL-8 release in PBMC cells, assay (b). Format: cell-based. As to conditions: Homo sapiens, LPS-stimulated PBMCs, read-out: IC50 Values for Inhibition of Cytokine Release, PBMCs IL-8. The procedure:
Peripheral blood mononuclear cells (PBMCs) from healthy subjects are separated from whole blood using a density gradient (Lymphoprep, Axis-Shield Healthcare). The PBMCs are seeded in 96 well plates and treated with compounds at the desired concentration for 2 hours before addition of 1 ng/mL LPS (Escherichia Coli 0111:B4 from Sigma Aldrich) for 24 hours under normal tissue culture conditions (37° C., 5% CO2). The supernatant is harvested for determination of IL-8 and TNFα concentrations by sandwich ELISA (Duo-set, R&D systems) and read on the fluorescence microplate reader (Varioskan® Flash, ThermoFisher Scientific).

The test system of test [2] is PBMCs. The experiment in a line: IL-2 and IFN gamma release in CD3/CD28 stimulated PBMC cells, assay (c). As to conditions: Homo sapiens, IFNγ, read-out: IC50 Values for Inhibition of Cytokine Release, PBMCs IFNγ. The format is cell-based. The procedure: PBMCs from healthy subjects are separated from whole blood using a density gradient (Lymphoprep, Axis-Shield Healthcare). Cells are added to a 96 well plate pre-coated with a mixture of CD3/CD28 monoclonal antibodies (0.3 μg/mL eBioscience and 3 μg/mL BD Pharmingen respectively). Compound at the desired concentration is then added to the wells and the plate left for 3 days under normal tissue culture conditions. Supernatants are harvested and IL-2 and IFN gamma release determined by Sandwich ELISA (Duo-set, R&D System). The IC50 is determined from the dose response curve.

Another test has as its system d-U937 cells. The experiment in a line: Accumulation of β catenin in d-U937 cells, assay (m). The format is cell-based, human. How it is done:
U937 cells, a human monocytic cell line, are differentiated into macrophage-type cells by incubation with PMA; (100 ng/mL) for between 48 to 72 hr. The cells are then incubated with either final concentrations of test compound or vehicle for 18 hr. The induction of β-catenin by the test compounds is stopped by replacing the media with 4% formaldehyde solution. Endogenous peroxide activity is neutralised by incubating with quenching buffer (100 μL, 0.1% sodium azide, 1% H2O2 in PBS with 0.05% Tween-20) for 20 min. The cells are washed with washing buffer (200 μL; PBS containing 0.05% Tween-20) and incubated with blocking solution (200 μL; 5% milk in PBS) for 1 hr, re-washed with washing buffer (200 μL) and then incubated overnight with anti-β-catenin antibody solution (50 μL) in 1% BSA/PBS (BD, Oxford, UK).
After washing with washing buffer (3×200 μL; PBS containing 0.05% Tween-20), cells are incubated with an HRP-conjugated secondary antibody solution (100 μL) in 1% BSA/PBS (Dako, Cambridge, UK) and the resultant signal is determined colourimetrically (OD: 450 nm with a reference wavelength of 655 nm) using TMB substrate (50 μL; R&D Systems, Abingdon, UK). This reaction is stopped by addition of 1N H2SO4 solution (50 μL). Cells are then washed with washing buffer and 2% crystal violet solution (50 μL) is applied for 30 min. After washing with washing buffer (3×200 μL), 1% SDS (100 μL) is added to each well and the plates are shaken lightly for 1 hr prior to measuring the absorbance at 595 nm (Varioskan® Flash, Thermo-Fisher Scientific).
The measured OD450-655 readings are corrected for cell number by dividing the OD450-655 by the OD595 readings. The percentage induction for each well is calculated relative to vehicle, and the ratio of induction normalised in comparison with the induction produced by a standard control comprising of N-(4-(4-(3-(3-tert-butyl-1-p-tolyl-1H-pyrazol-5-yl)ureido)naphthalen-1-yloxy)pyridin-2-yl)-2-methoxyacetamide (1 μg/mL) which is defined as 100%.

Another test relates to HT29 cells. The experiment in a line: IL-1β-induced IL-8 release in HT29 cells, assay (d). As to conditions: Homo sapiens, HT-29, IL-1β-stimulated HT29 cells, read-out: IC50 Values for Inhibition of Cytokine Release, HT29 cells IL-8. Format: cell-based. The procedure: HT29 cells, a human colon adenocarcinoma cell line, are plated in a 96 well plate (24 hrs) and pre-treated with compounds at the desired concentration for 2 hours before addition of 5 ng/mL of IL-1β (Abcam) for 24 hours. Supernatants are harvested for IL-8 quantification by Sandwich ELISA (Duo-set, R&D System). The IC50 is determined from the dose response curve.

Where [3] appears, read: 1 μg/mL test compound, normalised to reference N-(4-(4-(3-(3-tert-butyl-1-p-tolyl-1H-pyrazol-5-yl)ureido)naphthalen-1-yloxy)pyridin-2-yl)-2-methoxyacetamide.
The mark [4] stands for this setting: 5 μg/mL test compound, normalised to the same reference compound.
Where [5] appears, read: 10 μg/mL test compound, normalised to the same reference compound.

The structures appear in SMILES notation. Some results are limits rather than exact numbers.

Sequence of c-Src (P12931 whole entry, looked up): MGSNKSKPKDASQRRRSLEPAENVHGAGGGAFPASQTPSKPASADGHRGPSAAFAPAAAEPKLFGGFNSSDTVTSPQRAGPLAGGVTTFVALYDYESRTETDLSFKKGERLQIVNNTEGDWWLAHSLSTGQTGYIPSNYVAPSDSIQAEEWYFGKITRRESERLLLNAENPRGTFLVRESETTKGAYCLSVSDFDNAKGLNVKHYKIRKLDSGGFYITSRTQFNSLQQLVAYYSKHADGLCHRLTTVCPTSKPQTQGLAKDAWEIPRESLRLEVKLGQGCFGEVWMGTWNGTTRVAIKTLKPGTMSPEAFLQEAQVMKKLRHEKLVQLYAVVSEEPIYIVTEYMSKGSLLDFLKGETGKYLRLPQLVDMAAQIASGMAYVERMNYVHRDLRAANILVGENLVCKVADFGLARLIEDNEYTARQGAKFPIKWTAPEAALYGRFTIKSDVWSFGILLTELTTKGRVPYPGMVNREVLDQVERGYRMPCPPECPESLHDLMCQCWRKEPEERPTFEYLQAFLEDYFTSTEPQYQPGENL
Sequence of p38 MAPKα (Q16539 whole entry): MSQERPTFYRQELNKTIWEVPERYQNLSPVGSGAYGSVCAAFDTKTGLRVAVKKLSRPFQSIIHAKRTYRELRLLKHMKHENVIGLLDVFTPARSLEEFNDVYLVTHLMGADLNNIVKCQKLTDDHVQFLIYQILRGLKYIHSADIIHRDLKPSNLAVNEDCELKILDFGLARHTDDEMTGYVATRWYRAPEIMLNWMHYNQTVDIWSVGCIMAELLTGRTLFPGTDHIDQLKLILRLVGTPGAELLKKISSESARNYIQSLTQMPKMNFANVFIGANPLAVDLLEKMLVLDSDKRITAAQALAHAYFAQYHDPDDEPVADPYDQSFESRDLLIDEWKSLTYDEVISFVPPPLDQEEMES
Sequence of GSK3α (P49840 whole entry, canonical isoform): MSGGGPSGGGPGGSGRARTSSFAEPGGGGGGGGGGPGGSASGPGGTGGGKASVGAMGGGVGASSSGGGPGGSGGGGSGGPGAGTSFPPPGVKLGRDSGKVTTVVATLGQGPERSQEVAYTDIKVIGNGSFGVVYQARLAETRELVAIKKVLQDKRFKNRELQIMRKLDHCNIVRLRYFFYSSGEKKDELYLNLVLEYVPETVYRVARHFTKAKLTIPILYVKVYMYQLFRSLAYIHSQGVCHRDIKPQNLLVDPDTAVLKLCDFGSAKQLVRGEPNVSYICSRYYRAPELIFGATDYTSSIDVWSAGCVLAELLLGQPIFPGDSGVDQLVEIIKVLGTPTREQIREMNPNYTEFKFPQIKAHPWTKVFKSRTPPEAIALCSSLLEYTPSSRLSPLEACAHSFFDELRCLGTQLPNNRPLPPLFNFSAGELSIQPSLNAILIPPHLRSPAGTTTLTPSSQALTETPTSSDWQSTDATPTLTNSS

Consider `C#Cc1cc(Nc2nccc(Oc3ccc(NC(=O)Nc4cc(C(C)(C)C)nn4C)c4ccccc34)n2)cc(C(=O)NCCOCCOCCOC)c1` [Example 7, 3-((4-((4-(3-(3-(tert-Butyl)-1-methyl-1H-pyrazol-5-yl)ureido)naphthalen-1-yl)oxy)pyrimidin-2-yl)amino)-5-ethynyl-N-(2-(2-(2-methoxyethoxy)ethoxy)ethyl)benzamide], for which the IC50 on p38 MAPKα was 11 nM; on c-Src, 5 nM; on Syk, more than 1000 nM; against GSK3α it was 1850 nM; in the test with PBMCs [1] it was 2.2 nM; in the test on PBMCs [2], 11.8 nM. Besides, the “% β-catenin induction” value was determined as 1.5% in the test on d-U937 cells (setting [3]), 6% with d-U937 cells (setting [4]) and 9.5% with d-U937 cells (setting [5]).

For `C#Cc1cc(Nc2nccc(Oc3ccc(NC(=O)Nc4cc(C(C)(C)C)nn4CC)c4ccccc34)n2)cc(C(=O)NCCOCCOCCOC)c1` [Example 8, 3-((4-((4-(3-(3-(tert-Butyl)-1-ethyl-1H-pyrazol-5-yl)ureido)naphthalen-1-yl)oxy)pyrimidin-2-yl)amino)-5-ethynyl-N-(2-(2-(2-methoxyethoxy)ethoxy)ethyl)benzamide], the concentration for half-maximal inhibition (IC50) on p38 MAPKα is 20 nM; at c-Src, 5 nM; at Syk, more than 1000 nM; at GSK3α, 3070 nM; in the test on PBMCs [1] it was 4.8 nM; in the test on PBMCs [2], 13.2 nM. In addition, the “% β-catenin induction” value is given as 2.5% with d-U937 cells (setting [3]), 4% with d-U937 cells (setting [4]) and 3.5% in the test on d-U937 cells (setting [5]).

Take `C#Cc1cc(Nc2cc(Oc3ccc(NC(=O)Nc4cc(C(C)(C)C)nn4C)c4ccccc34)ccn2)cc(C(=O)NCCOCCOCCOC)c1` [Example 9, 3-((4-((4-(3-(3-(tert-Butyl)-1-methyl-1H-pyrazol-5-yl)ureido)naphthalen-1-yl)oxy)pyridin-2-yl)amino)-5-ethynyl-N-(2-(2-(2-methoxyethoxy)ethoxy)ethyl)benzamide]: the IC50 against p38 MAPKα is 66 nM; against c-Src it was 53 nM; against Syk it was more than 1000 nM; against GSK3α it was 12400 nM; with PBMCs [1], 3.8 nM; in the test with PBMCs [2], 33.7 nM. Also, the 50% inhibitory concentration (IC50) in the test on HT29 cells is 18 nM. Besides, the entries for the “% β-catenin induction” value with d-U937 cells (setting [3]), in the test on d-U937 cells (setting [4]) and in the test with d-U937 cells (setting [5]) were −2.5%, −1% and 4.5%, respectively.

Consider `C#Cc1cc(Nc2nccc(Oc3ccc(NC(=O)Nc4cc(C(C)C)nn4C)c4ccccc34)n2)cc(C(=O)NCCN2CCOCC2)c1` [Example 10, 3-Ethynyl-5-((4-((4-(3-(3-isopropyl-1-methyl-1H-pyrazol-5-yl)ureido)naphthalen-1-yl)oxy)pyrimidin-2-yl)amino)-N-(2-morpholinoethyl)benzamide], for which the IC50 was determined as 9 nM on p38 MAPKα; 8 nM at c-Src; 819 nM on Syk; 14100 nM on GSK3α; 15.6 nM with PBMCs [1]; 270 nM with HT29 cells.

Consider `C#Cc1cc(Nc2nccc(Oc3ccc(NC(=O)Nc4cc(C(C)C)nn4C)c4ccccc34)n2)cc(C(=O)NCCOCCOCCOC)c1` [Example 11, 3-Ethynyl-5-((4-((4-(3-(3-isopropyl-1-methyl-1H-pyrazol-5-yl)ureido)naphthalen-1-yl)oxy)pyrimidin-2-yl)amino)-N-(2-(2-(2-methoxyethoxy)ethoxy)ethyl)benzamide], for which the IC50 is 13 nM against p38 MAPKα; 9 nM against c-Src; more than 1000 nM at Syk; 9520 nM against GSK3α; 26.1 nM with PBMCs [1]; more than 1000 nM in the test on HT29 cells.
